US11732256B2, “Multivalent glycopeptides that tightly bind to target proteins” (Brandeis University, priority 2013, dated 2023)
*1 amine or outer side, *2 acyl side, *3 side chain or, on linkers, in order; H or OH if unused. Where a SMILES comes first, the peptide text is derived from it. [ ]: non-standard residue; d: D form. The star is where a group is joined. X1 = O=C([C@H](CCc1cn(C2CCC(OC3O[C@H](CO[C@H]4O[C@H](CO[C@H]5O[C@H](CO)[C@@H](O)[C@H](O)[C@@H]5O[C@H]5O[C@H](CO)[C@@H](O)[C@H](O)[C@@H]5O)[C@@H](O)[C@H](O[C@H]5O[C@H](CO)[C@@H](O)[C@H](O)[C@@H]5O[C@H]5O[C@H](CO)[C@@H](O)[C@H](O)[C@@H]5O)[C@@H]4O)[C@@H](O)[C@H](O[C@H]4O[C@H](CO)[C@@H](O)[C@H](O)[C@@H]4O[C@H]4O[C@H](CO)[C@@H](O)[C@H](O)[C@@H]4O[C@H]4O[C@H](CO)[C@@H](O)[C@H](O)[C@@H]4O)[C@@H]3O)CC2)nn1)N[*:1])[*:2]; For = O=C*

Target: HIV broadly neutralizing antibody 2G12
Assay: Radioactive 2G12-glycopeptide binding assay with protein G magnetic beads (binding curve and KD determination)
Conditions: for Fmax [%]: Table 6 mutants/truncations, radioactive binding assay; for 2G12 binding after truncation: truncated clones
Description: The sequences were obtained by cloning non-selected library DNA. […] FIG. 9B is an SDS-PAGE analysis of the click reaction of the non-selected peptides. Both peptides were transcribed and translated from PCR-amplified DNA in Pure System that contains 0.02 mg/mL T7 RNA polymerase and additional 1 mM each NTP. The peptides were labeled with 3H-histidine and the bands were visualized by fluorography.
For round 10 winners, 0.12-0.2 nM radioactive glycopeptides were incubated with 0, 0.25, 0.5, 1, 2, 4, 8, 16, 32 or 64 nM 2G12 in 40 μL of selection buffer at room temperature for 1 h. Then, the solution was added to 0.12 mg of pre-equilibrated Dynabeads Protein G and tumbled at room temperature for 30 min. The supernatant was removed and the beads were washed with 3×40 μL of selection buffer. The radioactivities of the supernatant and wash solutions were measured by liquid scintillation counting as unbound fractions. […] The beads were resuspended in 40 μL of selection buffer, heated at 70° C. for 30 min to elute the bound glycopeptides, chilled on ice for 5 min, and tumbled at room temperature for 10 min. The supernatant was removed, and the beads were washed with 40 μL of selection buffer and resuspended in 40 μL of selection buffer. The radioactivities of these solutions and suspensions were measured by liquid scintillation counting separately and the values were combined as apparent bound fractions. […] All experiments were done at least in triplicate. KDs were calculated as described in the footnote of Table 4 (below).

XYKNIPSTTXNLYSKPXATVTTLKCKLNGNRIS [Clone 12G]
Kd (Table 4, radiolabeled ribosomally translated glycopeptide, varied 2G12, room temperature, ± standard error of curve fit): > 128 nM

CC[C@H](C)[C@H](NC(=O)[C@H](CO)NC(=O)[C@H](CCCNC(=N)N)NC(=O)[C@H](CCc1cn(C2CCC(OC3O[C@H](CO[C@H]4O[C@H](CO[C@H]5O[C@H](CO)[C@@H](O)[C@H](O)[C@@H]5O[C@H]5O[C@H](CO)[C@@H](O)[C@H](O)[C@@H]5O)[C@@H](O)[C@H](O[C@H]5O[C@H](CO)[C@@H](O)[C@H](O)[C@@H]5O[C@H]5O[C@H](CO)[C@@H](O)[C@H](O)[C@@H]5O)[C@@H]4O)[C@@H](O)[C@H](O[C@H]4O[C@H](CO)[C@@H](O)[C@H](O)[C@@H]4O[C@H]4O[C@H](CO)[C@@H](O)[C@H](O)[C@@H]4O[C@H]4O[C@H](CO)[C@@H](O)[C@H](O)[C@@H]4O)[C@@H]3O)CC2)nn1)NC=O)C(=O)N1CCC[C@H]1C(=O)N[C@@H](Cc1c[nH]c2ccccc12)C(=O)N[C@@H](Cc1ccc(O)cc1)C(=O)N[C@H](C(=O)N[C@@H](Cc1ccc(O)cc1)C(=O)N[C@@H](CCCNC(=N)N)C(=O)N[C@@H](Cc1c[nH]c2ccccc12)C(=O)N[C@@H](CC(C)C)C(=O)N1CCC[C@H]1C(=O)N[C@@H](CC(N)=O)C(=O)NCC(=O)N[C@@H](CO)C(=O)NCC(=O)N[C@@H](CO)C(=O)N[C@@H](CC(C)C)C(=O)NCC(=O)N[C@@H](Cc1c[nH]cn1)C(=O)N[C@@H](Cc1c[nH]cn1)C(=O)N[C@@H](Cc1c[nH]cn1)C(=O)N[C@@H](Cc1c[nH]cn1)C(=O)N[C@@H](Cc1c[nH]cn1)C(=O)N[C@@H](Cc1c[nH]cn1)C(=O)N[C@@H](CCCNC(=N)N)C(=O)N[C@@H](CC(=O)O)C(=O)N[C@@H](Cc1ccc(O)cc1)C(=O)N[C@@H](CCCCN)C(=O)N[C@@H](CC(=O)O)C(=O)N[C@@H](CC(=O)O)C(=O)N[C@@H](CC(=O)O)C(=O)N[C@@H](CC(=O)O)C(=O)N[C@@H](CCCCN)C(=O)O)[C@@H](C)O (stereo partly drawn) [Clone 10V1-Δ19, XRSIPWYTYRWLPN] (For-[X1]RSIPWYTYRWLPNGSGSLGHHHHHHRDYKDDDDK-OH; C-terminus assumed)
Fmax [%]: 20%
2G12 binding after truncation: tight binding

CC[C@H](C)[C@H](NC(=O)[C@H](CCCNC(=N)N)NC(=O)[C@H](Cc1c[nH]cn1)NC(=O)[C@H](Cc1ccccc1)NC(=O)[C@H](CC(C)C)NC(=O)[C@H](C)NC(=O)[C@H](CC(C)C)NC(=O)[C@H](C)NC(=O)[C@H](Cc1ccc(O)cc1)NC(=O)[C@H](CCc1cn(C2CCC(OC3O[C@H](CO[C@H]4O[C@H](CO[C@H]5O[C@H](CO)[C@@H](O)[C@H](O)[C@@H]5O[C@H]5O[C@H](CO)[C@@H](O)[C@H](O)[C@@H]5O)[C@@H](O)[C@H](O[C@H]5O[C@H](CO)[C@@H](O)[C@H](O)[C@@H]5O[C@H]5O[C@H](CO)[C@@H](O)[C@H](O)[C@@H]5O)[C@@H]4O)[C@@H](O)[C@H](O[C@H]4O[C@H](CO)[C@@H](O)[C@H](O)[C@@H]4O[C@H]4O[C@H](CO)[C@@H](O)[C@H](O)[C@@H]4O[C@H]4O[C@H](CO)[C@@H](O)[C@H](O)[C@@H]4O)[C@@H]3O)CC2)nn1)NC(=O)[C@H](CC(=O)O)NC(=O)[C@@H](NC(=O)[C@@H](NC(=O)[C@H](CCC(N)=O)NC(=O)[C@H](CCc1cn(C2CCC(OC3O[C@H](CO[C@H]4O[C@H](CO[C@H]5O[C@H](CO)[C@@H](O)[C@H](O)[C@@H]5O[C@H]5O[C@H](CO)[C@@H](O)[C@H](O)[C@@H]5O)[C@@H](O)[C@H](O[C@H]5O[C@H](CO)[C@@H](O)[C@H](O)[C@@H]5O[C@H]5O[C@H](CO)[C@@H](O)[C@H](O)[C@@H]5O)[C@@H]4O)[C@@H](O)[C@H](O[C@H]4O[C@H](CO)[C@@H](O)[C@H](O)[C@@H]4O[C@H]4O[C@H](CO)[C@@H](O)[C@H](O)[C@@H]4O[C@H]4O[C@H](CO)[C@@H](O)[C@H](O)[C@@H]4O)[C@@H]3O)CC2)nn1)NC(=O)[C@H](CCCCN)NC(=O)[C@H](CC(C)C)NC(=O)[C@H](C)NC(=O)[C@H](C)NC(=O)[C@H](CCc1cn(C2CCC(OC3O[C@H](CO[C@H]4O[C@H](CO[C@H]5O[C@H](CO)[C@@H](O)[C@H](O)[C@@H]5O[C@H]5O[C@H](CO)[C@@H](O)[C@H](O)[C@@H]5O)[C@@H](O)[C@H](O[C@H]5O[C@H](CO)[C@@H](O)[C@H](O)[C@@H]5O[C@H]5O[C@H](CO)[C@@H](O)[C@H](O)[C@@H]5O)[C@@H]4O)[C@@H](O)[C@H](O[C@H]4O[C@H](CO)[C@@H](O)[C@H](O)[C@@H]4O[C@H]4O[C@H](CO)[C@@H](O)[C@H](O)[C@@H]4O[C@H]4O[C@H](CO)[C@@H](O)[C@H](O)[C@@H]4O)[C@@H]3O)CC2)nn1)NC(=O)[C@H](CCc1cn(C2CCC(OC3O[C@H](CO[C@H]4O[C@H](CO[C@H]5O[C@H](CO)[C@@H](O)[C@H](O)[C@@H]5O[C@H]5O[C@H](CO)[C@@H](O)[C@H](O)[C@@H]5O)[C@@H](O)[C@H](O[C@H]5O[C@H](CO)[C@@H](O)[C@H](O)[C@@H]5O[C@H]5O[C@H](CO)[C@@H](O)[C@H](O)[C@@H]5O)[C@@H]4O)[C@@H](O)[C@H](O[C@H]4O[C@H](CO)[C@@H](O)[C@H](O)[C@@H]4O[C@H]4O[C@H](CO)[C@@H](O)[C@H](O)[C@@H]4O[C@H]4O[C@H](CO)[C@@H](O)[C@H](O)[C@@H]4O)[C@@H]3O)CC2)nn1)NC=O)C(C)C)[C@@H](C)O)C(=O)N[C@@H](CC(C)C)C(=O)NCC(=O)N[C@@H](CO)C(=O)NCC(=O)N[C@@H](CO)C(=O)N[C@@H](CC(C)C)C(=O)NCC(=O)N[C@@H](Cc1c[nH]cn1)C(=O)N[C@@H](Cc1c[nH]cn1)C(=O)N[C@@H](Cc1c[nH]cn1)C(=O)N[C@@H](Cc1c[nH]cn1)C(=O)N[C@@H](Cc1c[nH]cn1)C(=O)N[C@@H](Cc1c[nH]cn1)C(=O)N[C@@H](CCCNC(=N)N)C(=O)N[C@@H](CC(=O)O)C(=O)N[C@@H](Cc1ccc(O)cc1)C(=O)N[C@@H](CCCCN)C(=O)N[C@@H](CC(=O)O)C(=O)N[C@@H](CC(=O)O)C(=O)N[C@@H](CC(=O)O)C(=O)N[C@@H](CC(=O)O)C(=O)N[C@@H](CCCCN)C(=O)O (stereo partly drawn) [Clone 10F2-Δ11, XXAALKXQVTDXYALALFHRIL]
Fmax [%]: 70%
2G12 binding after truncation: tight binding

For-[X1]PNCITQQDVR[X1]TSIPYTYTWPGSGSLGHHHHHHRDYKDDDDK-OH [Clone 10F3-Δ11, XPNCITQQDVRXTSIPYTYTWP]
Fmax [%]: 32%
